The record followed here is patent publication US20180153826A1, “MATERIALS AND METHODS FOR THE TREATMENT OF CYSTIC FIBROSIS” (UNIVERSITY OF FLORIDA RESEARCH FOUNDATION, INC., priority 2015, published 2018).

Set-up in all cases: species or system rat
The test system of test [1] is HCO3^− secretion by colonic mucosa. In words: Basal HCO3^− secretion (pH stat JHCO3 and Isc, Ussing chamber). How it is done: Experiments were performed using non-fasting male Sprague-Dawley rats and C57BL/6 mice. Rats weighting 100-400 g were obtained from Charles River Laboratories. Mice lacking CaSR expression in intestinal epithelial cells (CaSR^−/−) and their CaSR^+/+ littermates were bred and maintained. CaSR^−/− mice were generated as previously described. Briefly, CaSR flox/flox mice were bred with transgenic mice expressing Cre Recombinase under the control of the villin 1 promoter and genotyped prior to all experiments after an approximate 10-12 generations. Mice were used at 5-10 weeks of age. Animals were fed and maintained on regular chow (Harlan) with free access to water before sacrifice. Animals were sacrificed with standard CO2 inhalation followed by cervical dislocation. The colons were isolated, cut open along the mesenteric border into a flat sheet, and flushed with ice-cold Ringer solutions. […]
(§1) Two types of approaches were used in the measurement of colonic HCO3^− secretion, namely, measurement of lumen pH or pH stat titration of net alkalinization by colonic mucosa. […] The amount of the acid delivered per unit time per surface area was used to quantitate HCO3^− secretion by the mucosa. Measurements were recorded continuously and mean values for consecutive 5 or 10 min periods were averaged. The rate of HCO3^− secretion (JHCO3) is expressed as μEq/hr/cm^2. The short-circuit current (Isc) was measured in microamperes (μA) and converted into μEq/hr/cm^2. Tissue resistance (R, Ω cm^2) was calculated from Ohm's law.
Two adjacent sheets of mucosa from each colon were mounted into two Ussing chambers and bathed luminally with HCO3^−-free Cl^− Ringer solution and serosally with HCO3^−-containing Cl^− Ringer solution. After 15 to 30 min, when Isc and JHCO3 had stabilized, the CaSR agonist, R568 was added to the serosal or mucosal side of tissue, and changes in Isc and JHCO3 during the 15-30 min period ensuing after the addition of the agonist were determined.

Test [2] has the same test system. The test is described as follows: Secretagogue (forskolin)-induced HCO3^− secretion, lumen Cl^−-containing Ringer. The conditions noted are these: 10 μM serosa, added after forskolin 500 nM. How it is done: Stripped mucosal sheets were mounted into Ussing chambers (window area=0.3-0.5 cm^2, Physiologic Instruments, San Diego, Calif.). The mucosal side of tissue was bathed with an unbuffered HCO3^−-free Cl^− Ringer solution (see Table 2 for detailed composition) circulated by a gas lift with 100% O2 while the serosal side was bathed with buffered Cl^− Ringer solution (pH 7.4) that contained 25 mM HCO3^− and gassed with 5% CO2/95% O2. Each side contained 3-5 ml of solution and the temperature of the solution was adjusted to and maintained at 37° C. by heated water-jacketed reservoirs. […]
as §1, with “law. […]” for “law.”

The test system of test [3] is cAMP-dependent HCO3^− secretion. In words: Cyclic nucleotide (cAMP)-dependent HCO3^− secretion, lumen Cl^−/SCFA-free. How it is done: Stripped mucosal sheets were mounted into Ussing chambers (window area=0.3-0.5 cm^2, Physiologic Instruments, San Diego, Calif.). The mucosal side of tissue was bathed with an unbuffered HCO3^--free Cl^- Ringer solution (see Table 2 for detailed composition) circulated by a gas lift with 100% O2 while the serosal side was bathed with buffered Cl^- Ringer solution (pH 7.4) that contained 25 mM HCO3^- and gassed with 5% CO2/95% O2. Each side contained 3-5 ml of solution and the temperature of the solution was adjusted to and maintained at 37° C. by heated water-jacketed reservoirs. Experiments were performed under short-circuit conditions (Voltage-Current Clamp, VCC MC8; Physiologic Instruments, San Diego, Calif.) to maintain the transepithelial potentials at 0 mV, except for brief interruption at 20-second intervals for recording of open-circuit potential (VT, mV). Two types of approaches were used in the measurement of colonic HCO3^- secretion, namely, measurement of lumen pH or pH stat titration of net alkalinization by colonic mucosa. […] Radiometer Analytical, Villeurbanne, France). The amount of the acid delivered per unit time per surface area was used to quantitate HCO3^- secretion by the mucosa. Measurements were recorded continuously and mean values for consecutive 5 or 10 min periods were averaged. […] The short-circuit current (Isc) was measured in microamperes (μA) and converted into μEq/hr/cm^2. Tissue resistance (R, Ω cm^2) was calculated from Ohm's law. Colon segments were prepared and treated as in the secretagogue-induced HCO3^- secretion experiments except that they were bathed luminally with HCO3^--free Ringer solution that contained no isobutyrate and no Cl^-. Cyclic nucleotide-dependent HCO3^- secretion was calculated as […] (the difference between JHCO3 after minus JHCO3 before the addition of forskolin). When inhibitor was used, it was added at 30 min before […] or forskolin.

For `COc1cccc([C@@H](C)NCCCc2ccccc2Cl)c1.Cl` [R568, 2-Chloro-N-[(1R)-1-(3-methoxyphenyl)ethyl]-benzenepropanamine hydrochloride], in test [1] (10 μM, added to serosa), the “basal JHCO3 response” value is reported as “significantly stimulated”. Moreover, the “Isc in presence of R568” value in test [1] (basal, absence 1.36±0.40, n=5, p>0.05) is on record as 1.48±0.44 μEq/hr/cm^2. Besides, the “effects of R568 compared with reduced Ca^2+o” value in test [1] (under normal Ca^2+o condition) is listed as “qualitatively similar, albeit with a slightly less pronounced effect”. Also, the “effect on forskolin-induced HCO3^− secretion” value in test [2] was “did not increase but rather decreased”. The “effect on FSK-induced HCO3^− secretion” value in test [3] (10 μM serosa after forskolin, lumen Cl^−/SCFA-free) was “almost completely reversed”. In addition, the “Isc response in the absence of serosal HCO3^−” value in test [3] (no serosal HCO3^− (data not shown)) is “failed to stimulate or to inhibit”. For the same compound, the “effect on forskolin-stimulated Isc” value in test [3] (subsequent addition after forskolin, lumen Cl^−-free) was “inhibited”.
